One may read the ED50 as the dose at which the effect has come halfway, by size or by number of responders.

Format in all cases: in vivo
One assay deals with Mature female rats. Kind of assay: Endocrine profile (thymus, adrenal and body weight after 2 weeks oral medication). As to conditions: compared with the controls. Here is the method:
The test procedures used to determine the biological activities of the compounds of the invention were carried out as follows: • Endocrine Profile: Mature female rats with an average body weight of 202 g and a body weight range of 15 g or less were medicated orally with test compound for 2 weeks. The test compound was prepared as a solution or suspension in 1% gum tragacanth or 0.75% methyl cellulose. On the day following the last medication, the rats were killed and the thymus and adrenal of each rat were removed, cleaned, and weighed. Body weights and food consumptions were also recorded.

The subject of the next assay is Male rats. As to the kind of experiment: Anti-inflammatory activity (a-tocopherol pouch test). The protocol:
A rapid subcutaneous injection of 25 mL of air was made between the scapulae of each rat. […] The test compound was administered in daily oral doses for 7 days beginning on the day of pouch formation. The compound to be tested was suspended in 1% gum tragacanth. Twenty-four hours after the last medication, the pouches were dissected free, and the fluid volume was measured. The inhibition of liquid exudate is a measure of the anti=inflammatory activity.

In assay [1] the test system is Mature male rats were bilaterally adrenalectomized. Kind of assay: Glycogenic activity (liver glycogen deposition test). The text has this: Glycogenic Activity: Mature male rats were bilaterally adrenalectomized 5 days prior to the test. These rats were medicated orally with the test compound for 5 days. Seven hours after the last medication, the rats (which have been fasted overnight) were anesthetized with sodium pentobarbital and a portion of one lobe of the liver was removed and frozen on dry ice for subsequent glycogen determination.

Consider `CC12Cc3cnn(-c4ccc(F)cc4)c3C=C1CCC1OC3(CC=C12)C(=O)c1ccccc1C3=O` (centres unmarked) [Compound I (R = F), 8'-(4-Fluorophenyl)-2',3',5',6',ll',lla'-hexahydro-lla'-methylspiro-2H-indene[2,3']-3H-pyrazolo[4",5":7',6']-naphtho-[2,1-b] pyran-1,3-dione], for which, in the assay on Mature female rats (dose level of 1 mg/kg), the “reduction in adrenal weight” value worked out at 56%, the “reduction in body weight gain” value was 129% and the “reduction in thymus weight” value was 61%. Further, the ED50 with Male rats (Rattus norvegicus, 168 h, daily oral doses for 7 days, male rats, inhibition of liquid exudate) amounted to 10 mg/kg. In the assay with Male rats (rats, general statement), the “anti-inflammatory activity by the a-tocopherol pouch test” value was “anti-inflammatory activity”. In addition, the “liver glycogen deposition value” in assay [1] (dose level of 9 mg/kg/day x 5, oral, adrenalectomized male rats, vehicle 2.2 + 0.04 mg/g) is reported as 21.8 + 4.4 mg/g of tissue. Further, the “glucocorticoid activity by the liver glycogen deposition test” value in assay [1] (oral, rats, general statement) was “oral glucocorticoid activity”.

Take `CC12Cc3cnn(-c4ccccc4)c3C=C1CCC1OC3(CC=C12)C(=O)c1ccccc1C3=O` (centres unmarked) [Compound I (R = H), 2',3',5',6',11',11a'-Hexahydro-11a'-methyl-8'-phenylspiro 2H-indene[2,3']-3H-pyrazolo[4",5":7',6']naphtho[2,1-b] pyran-1,3-dione]: in the assay on Mature female rats (dose level of 5 mg/kg), the “reduction in adrenal weight” value is listed as 38%, the “reduction in body weight gain” value is 62% and the “reduction in thymus weight” value is recorded as 51%. Besides, the “activity in the a-tocopherol pouch test” value in the assay with Male rats (dose level of 100 mg/kg, daily oral doses for 7 days, male rats) is “inactive”.

Values taken from patent publication EP0103030A1, “Polycyclic fused pyrazole compounds, useful as anti-inflammatory agents, and preparation thereof” (STERLING DRUG INC., priority 1982, dated 1984).
